Results taken from PMC8619434 (Viruses, 2021).
“Also recorded” adds a separate entry of the source.

Key:
[1] = test system: SARS-CoV-2 spike protein pseudovirus; type: cell-based
[2] = test system: SARS-CoV-2 spike protein pseudovirus; type: cell-based; remark: listed apart in the source
[3] = test system: SARS-CoV-2 spike protein pseudovirus; details: Caco-2
[4] = test system: SARS-CoV-2 spike protein pseudovirus; type: cell-based; remark: listed apart in the source
MERS-CoV-S pseudovirus = type: cell-based
[5] = test system: SARS-CoV-2 spike protein pseudovirus; experiment: organism not typed; type: cell-based
SARS-CoV-1-S pseudovirus = type: cell-based
VSV-G pseudovirus = experiment: microbe, parasite or virus in culture; type: cell-based, vesicular stomatitis virus
[6] = test system: SARS-CoV-2 spike protein pseudovirus; type: cell-based; remark: listed apart in the source
[7] = within current drug treatment regimes; ref PubChem database; read-out: peak serum concentration (Cmax); cited from earlier work
in vitro = details: human, % Viability of SARS-2-Spike pv
[8] = test system: SARS-CoV-2 spike protein pseudovirus; type: cell-based; remark: listed apart in the source

SMILES	inhibition of SARS-CoV-2 pseudovirus infection of Vero cells [1]	inhibition of SARS-CoV-2 pseudovirus infection of A549-ACE2 cells [2]	inhibition of SARS-CoV-2 pseudovirus infection of Caco2 cells [3]	% infectivity, drug added at 1 hpi (post-entry) [4]	inhibition of MERS-CoV-S pseudovirus infection (MERS-CoV-S pseudovirus)	% Infectivity of SARS-2-Spike pv [5]	inhibition of SARS-CoV-1-S pseudovirus infection (SARS-CoV-1-S pseudovirus)	% Infectivity of VSV-G pv (VSV-G pseudovirus)	% infectivity of SARS-CoV-2 pseudovirus in Calu3 cells [6]	Cmax [7] [nM]	viability (in vitro) [%]	activity at 10 µM ([5]; 293T/ACE2, 48 h, read-out: % Infectivity of SARS-2-Spike pv) [%]	IC50 ([5]; 293T/ACE2, read-out: IC50 of SARS-CoV-2-S pseudovirus infectivity) [nM]	% infectivity in attachment assay [8]	activity at 10 µM (VSV-G pseudovirus; Pseudovirus, 293T/ACE2, read-out: % Infectivity of VSV-G pv) [%]
CC(C)OC(=O)OCOP(=O)(CO[C@H](C)Cn1cnc2c(N)ncnc21)OCOC(=O)OC(C)C.O=C(O)/C=C/C(=O)O [tenofovir, tenofovir disoproxil fumarate]	complete inhibition	complete inhibition	complete inhibition	complete inhibition	completely inhibited	completely inhibited	completely inhibited	potently inhibited; also recorded: completely inhibited	complete inhibition	–	–	–	–	–	–
CN(C)CC/C=C1/c2ccccc2Sc2ccc(Cl)cc21 [chlorprothixene]	–	–	–	45%	–	–	–	–	44%	1400	97	5	1940	did not inhibit virus attachment	48
